Reference: ChEMBL document CHEMBL1909046, “DrugMatrix in vitro pharmacology data”
pIC50, pKi: −log10 of the molar value.

How the values were obtained:
[1] = molecular target: T1, Neuropeptide Y receptor type 1 (Homo sapiens, UniProt P25929); type: cell membranes, Membrane; conditions: sk-n-mc; further: in other assays of this panel Not Active means under 50% inhibition at 10 µM
T1 sequence (P25929 whole entry): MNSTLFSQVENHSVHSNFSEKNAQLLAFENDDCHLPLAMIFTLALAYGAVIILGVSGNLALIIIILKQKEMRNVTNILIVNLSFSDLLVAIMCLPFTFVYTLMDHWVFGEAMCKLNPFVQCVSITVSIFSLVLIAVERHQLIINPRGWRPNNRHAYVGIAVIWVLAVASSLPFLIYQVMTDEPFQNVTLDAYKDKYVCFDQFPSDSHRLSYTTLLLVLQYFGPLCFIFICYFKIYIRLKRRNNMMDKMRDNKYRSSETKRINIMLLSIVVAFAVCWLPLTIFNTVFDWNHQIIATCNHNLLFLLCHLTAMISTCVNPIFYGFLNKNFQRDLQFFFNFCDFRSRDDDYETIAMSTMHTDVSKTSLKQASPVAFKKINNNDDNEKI

[2] = molecular target: Mitogen-activated protein kinase 3 (Homo sapiens, UniProt P27361); experiment: DRUGMATRIX: Protein Serine/Threonine Kinase, ERK1 enzyme inhibition (substrate: Myelin Basic Protein); design: species or system Escherichia coli; conditions: Not Active = under 50% inhibition at 10 µM
B2 bradykinin receptor = molecular target: T2, B2 bradykinin receptor (Homo sapiens, UniProt P30411); type: cell membranes, Membrane; conditions: chem-1; further: in other assays of this panel Not Active means under 50% inhibition at 10 µM
T2 sequence (P30411 whole entry): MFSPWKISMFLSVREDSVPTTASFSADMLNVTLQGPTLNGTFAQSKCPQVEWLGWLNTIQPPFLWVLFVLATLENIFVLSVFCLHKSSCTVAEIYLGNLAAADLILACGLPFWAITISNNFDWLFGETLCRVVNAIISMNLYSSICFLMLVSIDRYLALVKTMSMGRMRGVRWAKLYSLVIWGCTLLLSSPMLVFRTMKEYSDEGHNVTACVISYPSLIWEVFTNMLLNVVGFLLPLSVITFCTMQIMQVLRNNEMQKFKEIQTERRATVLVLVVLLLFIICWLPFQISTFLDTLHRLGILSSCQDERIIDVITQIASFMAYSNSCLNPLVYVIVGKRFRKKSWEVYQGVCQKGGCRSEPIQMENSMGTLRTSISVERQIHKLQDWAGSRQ

[3] = molecular target: Delta-type opioid receptor (Homo sapiens, UniProt P41143); type: cell membranes, HEK293, Membrane; conditions: hek293; further: in other assays of this panel Not Active means under 50% inhibition at 10 µM
[4] = molecular target: Sodium-dependent noradrenaline transporter (Homo sapiens, UniProt P23975); experiment: DRUGMATRIX: Norepinephrine Transporter radioligand binding (ligand: [125I] RTI-55); type: cell membranes, MDCK, Membrane; conditions: Not Active = under 50% inhibition at 10 µM; for IC50: mdck
[5] = molecular target: T3, Muscarinic acetylcholine receptor M2 (Homo sapiens, UniProt P08172); type: cell membranes, CHO-K1, Membrane; conditions: for IC50: cho-k1; for pIC50: read-out: IC50; for pKi: read-out: Ki; on all read-outs here: in other assays of this panel Not Active means under 50% inhibition at 10 µM
T3 sequence (P08172 whole entry): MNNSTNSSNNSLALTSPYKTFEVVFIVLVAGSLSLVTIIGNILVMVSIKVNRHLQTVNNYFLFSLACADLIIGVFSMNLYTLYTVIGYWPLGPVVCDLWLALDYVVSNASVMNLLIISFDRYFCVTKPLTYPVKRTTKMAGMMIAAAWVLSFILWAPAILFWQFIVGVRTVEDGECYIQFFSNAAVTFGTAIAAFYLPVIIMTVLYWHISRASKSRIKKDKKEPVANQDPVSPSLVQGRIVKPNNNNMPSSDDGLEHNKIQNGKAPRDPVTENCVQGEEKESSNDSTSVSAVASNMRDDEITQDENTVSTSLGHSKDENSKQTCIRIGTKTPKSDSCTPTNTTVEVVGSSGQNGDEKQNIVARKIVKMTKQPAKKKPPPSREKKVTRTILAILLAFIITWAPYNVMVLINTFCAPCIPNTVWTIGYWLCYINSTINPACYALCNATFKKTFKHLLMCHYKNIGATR

[6] = molecular target: T4, Muscarinic acetylcholine receptor M5 (Homo sapiens, UniProt P08912); type: cell membranes, CHO-K1, Membrane; conditions: for IC50: cho-k1
T4 sequence (P08912 whole entry): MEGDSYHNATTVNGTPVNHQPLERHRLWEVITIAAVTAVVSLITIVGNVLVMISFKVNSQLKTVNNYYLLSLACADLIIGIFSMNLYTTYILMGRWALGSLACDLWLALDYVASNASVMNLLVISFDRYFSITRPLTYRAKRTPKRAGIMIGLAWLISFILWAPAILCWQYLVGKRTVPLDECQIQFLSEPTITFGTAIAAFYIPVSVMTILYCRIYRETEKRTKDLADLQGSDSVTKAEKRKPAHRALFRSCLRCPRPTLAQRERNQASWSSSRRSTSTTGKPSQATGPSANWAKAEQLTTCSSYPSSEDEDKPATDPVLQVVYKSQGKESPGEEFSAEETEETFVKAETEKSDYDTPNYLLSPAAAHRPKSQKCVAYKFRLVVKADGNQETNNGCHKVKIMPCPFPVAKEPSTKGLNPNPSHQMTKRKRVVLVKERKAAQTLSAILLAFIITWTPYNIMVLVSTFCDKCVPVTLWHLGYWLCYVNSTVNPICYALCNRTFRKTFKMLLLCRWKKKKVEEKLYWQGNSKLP

Adenosine receptor A3 = molecular target: T5, Adenosine receptor A3 (Homo sapiens, UniProt P0DMS8); type: cell membranes, CHO-K1, Membrane; conditions: for IC50: cho-k1
T5 sequence (P0DMS8 whole entry): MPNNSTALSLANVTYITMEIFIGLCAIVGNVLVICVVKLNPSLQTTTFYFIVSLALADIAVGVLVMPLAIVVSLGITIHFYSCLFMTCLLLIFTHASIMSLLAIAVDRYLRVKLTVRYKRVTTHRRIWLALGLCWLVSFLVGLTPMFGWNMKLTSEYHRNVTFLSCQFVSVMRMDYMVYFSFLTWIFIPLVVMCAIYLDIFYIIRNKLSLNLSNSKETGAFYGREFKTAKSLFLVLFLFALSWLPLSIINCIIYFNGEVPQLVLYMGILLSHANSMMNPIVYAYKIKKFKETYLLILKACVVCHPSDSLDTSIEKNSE

[7] = DRUGMATRIX: GABAA, Muscimol, Central radioligand binding (ligand: [3H] Muscimol); type: cell membranes, Rattus norvegicus, Wistar, Brain, Membrane; conditions: Not Active = under 50% inhibition at 10 µM
Nitric oxide synthase 1 = Nitric oxide synthase 1 (Rattus norvegicus, UniProt P29476); type: tissue-based, Cerebellum; further: in other assays of this panel Not Active means under 50% inhibition at 10 µM
Cytochrome P450 2D6 = Cytochrome P450 2D6 (Homo sapiens, UniProt P10635); conditions: bti-tn-5b1-4; further: in other assays of this panel Not Active means under 50% inhibition at 10 µM
Sequence of Cytochrome P450 2D6 (P10635 whole entry): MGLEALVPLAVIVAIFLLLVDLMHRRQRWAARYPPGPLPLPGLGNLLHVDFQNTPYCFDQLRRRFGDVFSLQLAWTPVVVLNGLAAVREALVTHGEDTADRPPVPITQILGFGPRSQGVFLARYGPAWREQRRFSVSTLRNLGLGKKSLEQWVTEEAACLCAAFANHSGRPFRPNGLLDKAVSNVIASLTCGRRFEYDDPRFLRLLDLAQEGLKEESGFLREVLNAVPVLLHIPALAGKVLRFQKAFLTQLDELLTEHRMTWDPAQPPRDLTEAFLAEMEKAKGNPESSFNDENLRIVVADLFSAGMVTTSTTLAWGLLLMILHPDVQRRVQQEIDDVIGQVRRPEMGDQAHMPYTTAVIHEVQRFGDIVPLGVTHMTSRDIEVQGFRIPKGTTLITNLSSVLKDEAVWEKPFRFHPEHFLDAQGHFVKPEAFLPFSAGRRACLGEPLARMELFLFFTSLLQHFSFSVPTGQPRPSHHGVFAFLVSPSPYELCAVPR

Sequence of Mitogen-activated protein kinase 3 (P27361 whole entry): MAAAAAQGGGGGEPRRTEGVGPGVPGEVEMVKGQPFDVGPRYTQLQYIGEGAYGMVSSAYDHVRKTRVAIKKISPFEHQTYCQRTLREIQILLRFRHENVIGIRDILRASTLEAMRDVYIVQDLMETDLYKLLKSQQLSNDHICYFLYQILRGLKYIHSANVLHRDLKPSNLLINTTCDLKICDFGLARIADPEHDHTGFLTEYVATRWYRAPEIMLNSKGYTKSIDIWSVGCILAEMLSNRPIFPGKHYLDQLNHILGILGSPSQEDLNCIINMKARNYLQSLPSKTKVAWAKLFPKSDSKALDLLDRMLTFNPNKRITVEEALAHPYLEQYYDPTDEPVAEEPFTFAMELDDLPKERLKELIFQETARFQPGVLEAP
Sequence of Nitric oxide synthase 1 (P29476 whole entry): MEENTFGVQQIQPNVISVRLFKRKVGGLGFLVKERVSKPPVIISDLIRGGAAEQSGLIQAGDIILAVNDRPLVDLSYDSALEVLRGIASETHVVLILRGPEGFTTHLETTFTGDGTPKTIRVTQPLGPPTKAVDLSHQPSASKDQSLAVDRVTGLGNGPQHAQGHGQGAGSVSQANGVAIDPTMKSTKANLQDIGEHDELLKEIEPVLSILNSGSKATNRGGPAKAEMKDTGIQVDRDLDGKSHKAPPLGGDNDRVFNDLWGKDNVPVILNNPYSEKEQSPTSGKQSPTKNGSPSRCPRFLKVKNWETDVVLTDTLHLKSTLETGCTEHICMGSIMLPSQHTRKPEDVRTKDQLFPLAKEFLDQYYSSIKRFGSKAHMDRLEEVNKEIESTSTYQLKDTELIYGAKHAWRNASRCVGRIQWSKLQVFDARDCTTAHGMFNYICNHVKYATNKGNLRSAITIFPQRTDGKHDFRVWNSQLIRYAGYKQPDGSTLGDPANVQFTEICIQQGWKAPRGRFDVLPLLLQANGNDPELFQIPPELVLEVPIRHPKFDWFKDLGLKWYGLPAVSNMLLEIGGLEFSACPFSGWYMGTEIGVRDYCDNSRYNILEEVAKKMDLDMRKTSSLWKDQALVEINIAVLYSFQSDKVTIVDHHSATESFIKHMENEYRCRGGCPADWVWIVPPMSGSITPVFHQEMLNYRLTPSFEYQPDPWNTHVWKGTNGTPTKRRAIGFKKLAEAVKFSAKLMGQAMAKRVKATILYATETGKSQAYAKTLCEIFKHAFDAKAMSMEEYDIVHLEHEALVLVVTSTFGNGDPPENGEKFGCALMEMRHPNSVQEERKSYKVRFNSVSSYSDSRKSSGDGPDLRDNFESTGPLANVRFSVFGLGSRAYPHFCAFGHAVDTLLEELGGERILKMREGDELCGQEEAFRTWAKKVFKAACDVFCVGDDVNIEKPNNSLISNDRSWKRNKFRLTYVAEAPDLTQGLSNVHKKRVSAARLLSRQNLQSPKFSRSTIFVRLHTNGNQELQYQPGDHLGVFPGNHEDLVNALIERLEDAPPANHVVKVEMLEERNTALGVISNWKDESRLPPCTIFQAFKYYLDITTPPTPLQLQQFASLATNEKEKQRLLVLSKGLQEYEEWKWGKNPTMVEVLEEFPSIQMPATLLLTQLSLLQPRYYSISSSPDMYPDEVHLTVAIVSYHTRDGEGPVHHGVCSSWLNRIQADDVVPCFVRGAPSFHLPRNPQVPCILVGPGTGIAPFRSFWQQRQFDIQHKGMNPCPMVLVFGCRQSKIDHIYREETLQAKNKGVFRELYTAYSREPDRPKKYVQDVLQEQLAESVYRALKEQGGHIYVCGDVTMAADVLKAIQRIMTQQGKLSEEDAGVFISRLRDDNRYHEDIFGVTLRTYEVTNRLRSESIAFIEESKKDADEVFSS
Sequence of Sodium-dependent noradrenaline transporter (P23975 whole entry): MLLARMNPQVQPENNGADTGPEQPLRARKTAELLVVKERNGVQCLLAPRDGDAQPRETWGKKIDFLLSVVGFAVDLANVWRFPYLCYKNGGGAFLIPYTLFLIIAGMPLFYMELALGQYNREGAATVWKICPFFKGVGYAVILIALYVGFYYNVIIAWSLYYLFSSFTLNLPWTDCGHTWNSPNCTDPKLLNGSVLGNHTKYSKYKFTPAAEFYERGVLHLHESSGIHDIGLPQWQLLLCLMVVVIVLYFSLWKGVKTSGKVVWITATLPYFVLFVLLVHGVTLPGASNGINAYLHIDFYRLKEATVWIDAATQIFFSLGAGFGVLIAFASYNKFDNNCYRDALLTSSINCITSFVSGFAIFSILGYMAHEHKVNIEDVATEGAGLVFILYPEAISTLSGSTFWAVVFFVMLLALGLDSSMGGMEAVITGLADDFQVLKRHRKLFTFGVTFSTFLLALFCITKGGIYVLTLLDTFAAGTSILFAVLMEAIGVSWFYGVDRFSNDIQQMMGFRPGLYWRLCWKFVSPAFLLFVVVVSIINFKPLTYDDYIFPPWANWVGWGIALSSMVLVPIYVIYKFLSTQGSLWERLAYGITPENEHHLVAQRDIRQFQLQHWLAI
Sequence of Delta-type opioid receptor (P41143 whole entry): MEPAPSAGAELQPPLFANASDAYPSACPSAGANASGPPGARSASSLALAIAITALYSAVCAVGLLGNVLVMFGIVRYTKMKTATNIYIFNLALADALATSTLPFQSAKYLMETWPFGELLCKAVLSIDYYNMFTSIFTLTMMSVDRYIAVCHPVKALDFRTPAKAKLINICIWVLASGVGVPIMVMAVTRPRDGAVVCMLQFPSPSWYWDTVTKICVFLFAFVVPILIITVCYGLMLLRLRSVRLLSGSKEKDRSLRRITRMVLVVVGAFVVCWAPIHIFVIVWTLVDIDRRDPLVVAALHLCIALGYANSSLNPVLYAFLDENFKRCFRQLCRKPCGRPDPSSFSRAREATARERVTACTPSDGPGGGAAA

| SMILES | IC50 [1] | IC50 [2] | IC50 (B2 bradykinin receptor) | IC50 [3] | IC50 [4] | IC50 [5] | IC50 [6] | IC50 (Adenosine receptor A3) | IC50 [7] | Ki [7] | IC50 (Nitric oxide synthase 1) | IC50 (Cytochrome P450 2D6) | Ki (Cytochrome P450 2D6) | also measured |
| --- | --- | --- | --- | --- | --- | --- | --- | --- | --- | --- | --- | --- | --- | --- |
| CC(C)NC[C@H](O)COc1cccc2[nH]ccc12 | Not Active | Not Active | Not Active | Not Active | Not Active | Not Active | Not Active | Not Active | Not Active | Not Active | Not Active | – | – | – |
| CCCCCCCCCc1ccc(O)cc1 [4-NONYLPHENOL] | Not Active | Not Active | Not Active | Not Active | – | Not Active | – | – | Not Active | Not Active | Not Active | Not Active | Not Active | pIC50 ([4]; read-out: IC50): 5.90; pKi ([4]; read-out: Ki): 5.91; pIC50 (Adenosine receptor A3; read-out: IC50): 5.72; pKi (Adenosine receptor A3; read-out: Ki): 5.97 |
| CCCCOC(=O)c1ccc(N)cc1 [BUTAMBEN] | Not Active | Not Active | Not Active | Not Active | Not Active | Not Active | Not Active | Not Active | Not Active | Not Active | Not Active | – | – | – |
| COCc1c(C(C)C)nc(C(C)C)c(/C=C/[C@@H](O)C[C@@H](O)CC(=O)O)c1-c1ccc(F)cc1 [CERIVASTATIN] | Not Active | Not Active | Not Active | Not Active | – | Not Active | Not Active | Not Active | Not Active | Not Active | Not Active | Not Active | Not Active | – |
| O=C(O)c1cn(C2CC2)c2cc(N3CCNCC3)c(F)cc2c1=O [CIPROFLOXACIN] | Not Active | Not Active | Not Active | Not Active | Not Active | Not Active | Not Active | Not Active | Not Active | Not Active | Not Active | – | – | – |
| CN(C)CCCC1(c2ccc(F)cc2)OCc2cc(C#N)ccc21 (centres undefined) [CITALOPRAM] | Not Active | Not Active | Not Active | Not Active | – | Not Active | Not Active | Not Active | Not Active | Not Active | Not Active | Not Active | Not Active | – |
| CCc1ccc(C(=O)C(C)CN2CCCCC2)cc1 (centres undefined) [EPERISONE] | Not Active | Not Active | Not Active | Not Active | Not Active | – | Not Active | Not Active | Not Active | Not Active | Not Active | – | – | pIC50 [5]: 5.63; pKi [5]: 6.08 |
| CC[N+](CC)(CC)CCOc1cccc(OCC[N+](CC)(CC)CC)c1OCC[N+](CC)(CC)CC.[I-].[I-].[I-] [GALLAMINE TRIETHIODIDE] | Not Active | Not Active | Not Active | Not Active | Not Active | – | Not Active | Not Active | Not Active | Not Active | Not Active | Not Active | Not Active | – |
| Nc1nc2c(ncn2COC(CO)CO)c(=O)[nH]1 [GANCICLOVIR] | Not Active | Not Active | Not Active | Not Active | – | Not Active | Not Active | Not Active | Not Active | Not Active | Not Active | Not Active | Not Active | – |
| CNCCC=C1c2ccccc2CCc2ccccc21 [NORTRIPTYLINE] | Not Active | Not Active | Not Active | Not Active | – | – | – | Not Active | Not Active | Not Active | Not Active | – | – | pIC50 [5]: 6.46; pKi [5]: 6.91; pIC50 ([6]; read-out: IC50): 7.57; pKi ([6]; read-out: Ki): 7.70 |
| CC1COc2c(N3CCN(C)CC3)c(F)cc3c(=O)c(C(=O)O)cn1c23 (centres undefined) [OFLOXACIN] | Not Active | Not Active | Not Active | Not Active | – | Not Active | Not Active | Not Active | Not Active | Not Active | Not Active | Not Active | Not Active | – |
| Fc1ccc([C@@H]2CCNC[C@H]2COc2ccc3c(c2)OCO3)cc1 [PAROXETINE] | Not Active | Not Active | Not Active | Not Active | – | – | – | Not Active | Not Active | Not Active | Not Active | – | – | – |
| COc1ccc(CN(CCN(C)C)c2ccccn2)cc1 [PYRILAMINE] | Not Active | Not Active | Not Active | Not Active | – | Not Active | Not Active | Not Active | Not Active | Not Active | Not Active | – | – | – |
